In US6555692B1, “Preparation and use of bifunctional molecules having DNA sequence binding specificity” (California Institute of Technology, priority 1996, dated 2003):
pKd: −log10 of the molar value. Values belong to the molecule of their own block, whether it stands above or below them.

What was measured:
5′-TGTGAACA-3′ = assay: DNase I footprint titrations; details: single base pair mismatch sequence
5′-AACCAAGTCTTGGTA-3′ = assay: Association constants, recognition of 15 base pairs; details: Table 7, C3-OH polyamides, match site
5′-AACCAAGTACTTGGTA-3′ = assay: Association constants, recognition of 16 base pairs; type: binding; details: Table 10, C3-OH polyamides, match site
5′-TGTAACA-3′ = assay: DNase I footprint titration
5′-TGGAACA-3′ = assay: DNase I footprint titration; details: formal match sequence
5′-AAAAACACA-3′ = assay: Quantitative DNase I footprint titration
[1] = biological target: nine bp polyamide binding site on restriction fragment from pUC-19; assay: Pvu II endonuclease protection assay, association and dissociation rates
Text: Provided herein is an endonuclease protection assay to measure the rate of polyamide-DNA complex formation. Such an assay may comprise a labeled restriction fragment comprising a polyamide binding site that overlaps a restriction endonuclease cleavage site. Cleavage by the cognate is prevented when the overlapping polyamide binding site is occupied by the polyamide. As a control, a second labeled DNA fragment may be that contains the restriction site, but lacks the overlapping polyamide binding site. The rate of polyamide association with its target binding site may be assessed by incubating the solutions of the polyamide with the labeled target and reference fragments for a sufficient timer period. Using the experimental conditions provided herein, the reference site is nearly completely digested, but protection at the target site is observed and can be correlated with polyamide concentration and the time of equilibration. Similarly, the dissociation rate is analyzed by adding an excess of unlabeled competitor DNA to an equilibrated solution of the labeled DNA fragments and polyamide. Addition of the competitor reduces the concentration of free polyamide to zero. The rate at with polyamide dissociation occurs from the target site on the labeled fragment can be followed by the rate of loss of protection from restriction enzyme digestion as the re-equilibration time is increased.
An engineered, radiolabeled restriction fragment from pUC-19 was prepared in which a nine bp polyamide binding site overlaps by two base pairs with the cleavage site for the restriction endonuclease Pvu II. Cleavage by Pvu II is prevented when the overlapping polyamide binding site is .occupied by the polyamide. As a control, a second radiolabeled DNA fragment was prepared which contains a Pvu II site, but lacks the overlapping polyamide binding site.
The rate of polyamide association with its target binding site was assessed by combining solutions of the polyamide with the radiolabeled target and reference fragments and allowing them to for 5 minutes to 5 hours before initiating a treatment (1-2 minutes) with the enzyme Pvu II. Under the experimental conditions, the reference site is nearly completely digested, but protection at the target site is observed and can be correlated with polyamide concentration and the time of equilibration. Similarly, the dissociation rate is analyzed by adding an excess of unlabeled competitor DNA to an equilibrated solution of the labeled DNA fragments and polyamide. Addition of the competitor reduces the concentration of free polyamide to zero. The rate at with polyamide dissociation occurs from the target site on the labeled fragment can be followed by the rate of loss of protection from Pvu II digestion as the re-equilibration time is increased. The association profile with respect to time for the 9-ring extended hairpin polyamide ImPyPy-γ-ImPyPy-β-PyPyPy-G-Dp binding its cognate 9 base pair match site is shown in FIG. 6.
The extended hairpin dissociation rate has been determined to be kd=3.1±0.2×10^−5 s^−1, this corresponds to a half-time of 6.2 h (10 mM Bis-Tris (pH 7.0), 50 mM NaCl, 5 mM MgCl2, 1 mM mercaptoethanol at 37° C.). Wherein half-time is defined as the time required for 50% of a population of DNA and polyamide to dissociate or associate. The association rate has been determined at ka=1.3±0.8×10^4 M^−1s^−1; this corresponds to a half-time of 3.0 h at 5.0 nM. The determined value for the equilibrium association constant (Keq=6.3±0.8×10^8 M^−1) correlates well with the kinetically determined ratio (ka/kd=4.2±2.6×10^8 M^−1).

SMILES: CN(C)CCCNC(=O)CCNC(=O)c1cc(NC(=O)c2cc(NC(=O)CCNC(=O)c3cc(NC(=O)c4cc(NC(=O)c5nc(NC(=O)CCCNC(=O)c6cc(NC(=O)c7cc(NC(=O)c8cc(NC(=O)CCNC(=O)c9cc(NC(=O)c%10nccn%10C)cn9C)cn8C)cn7C)cn6C)cn5C)cn4C)cn3C)cn2C)cn1C
Ka (5′-TGTGAACA-3′): < 1e+09 M⁻¹

SMILES: CC(=O)Nc1cn(C)c(C(=O)Nc2cn(C)c(C(=O)Nc3cc(C(=O)NCCCC(=O)Nc4cc(C(=O)Nc5cc(C(=O)Nc6cc(C(=O)NCCCO)n(C)c6)n(C)c5)n(C)c4)n(C)c3)n2)n1 [Ac-ImImPy-γ-PyPyPy-C3—OH]
Ka 5′-AACCAAGTCTTGGTA-3′ (5′-AACCAAGTCTTGGTA-3′): 7 × 10^6 | Ka 5′-AACCAAGTACTTGGTA (5′-AACCAAGTACTTGGTA-3′): 7 × 10^6

SMILES: Cn1cc(NC(=O)c2cc(NC(=O)c3cc(NC(=O)CCCNC(=O)c4cc(NC(=O)c5nc(NC(=O)c6nc(NC(=O)CCCCCNC(=O)c7cc(NC(=O)c8cc(NC(=O)c9cc(NC(=O)c%10nccn%10C)cn9C)cn8C)cn7C)cn6C)cn5C)cn4C)cn3C)cn2C)cc1C(=O)NCCCO [ImPyPyPy-C6-ImImPy-γ-PyPyPy-C3—OH]
Ka 5′-AACCAAGTACTTGGTA (5′-AACCAAGTACTTGGTA-3′): < 1e+08 M⁻¹

Results, then the molecule that gave them:

reduction of affinity of the 5′-TGTAACA-3′ complex relative to ImPyPyPyPy-γ-ImPyPyPyPy-β-Dp (5′-TGTAACA-3′): > 300 fold | free energy difference (5′-TGTAACA-3′; 5′-TGTAACA-3′ complexes): at least 4 kcal/mol | equilibrium association constant Ka (5′-TGTAACA-3′; pH 7.0, 22° C.): < 1e+07 M⁻¹ | equilibrium association constant Ka (5′-TGGAACA-3′): 3.6×10^9 m^−1
SMILES: CN(C)CCCNC(=O)CCNC(=O)c1cc(NC(=O)c2cc(NC(=O)c3cc(NC(=O)c4cc(NC(=O)c5nc(NC(=O)CCCNC(=O)c6cc(NC(=O)c7cc(NC(=O)c8cc(NC(=O)c9nc(NC(=O)c%10nccn%10C)cn9C)cn8C)cn7C)cn6C)cn5C)cn4C)cn3C)cn2C)cn1C [ImImPyPyPy-γ-ImPyPyPyPy-β-Dp]

increase in affinity relative to six-ring hairpin ImPyPy-γ-ImPyPy-β-Dp (5′-AAAAACACA-3′): ~400 fold | pKd (5′-AAAAACACA-3′; read-out: concentration at which the target site is bound, 9-bp target site): 10.30 | kinetically determined ratio ka/kd [1]: 4.2±2.6×10^8 M^−1 | dissociation rate kd ([1]; 10 mM Bis-Tris (pH 7.0), 50 mM NaCl, 5 mM MgCl2, 1 mM mercaptoethanol at 37° C.): 3.1±0.2×10^−5 s^−1 | association rate ka ([1]; 37° C.): 1.3±0.8×10^4 M^−1s^−1 | dissociation half-time ([1]; 37° C.): 6.2 h | equilibrium association constant Keq ([1]; 37° C.): 6.3±0.8×10^8 M^−1 | association half-time ([1]; at 5.0 nM): 3.0 h
SMILES: CN(C)CCCNC(=O)CNC(=O)c1cc(NC(=O)c2cc(NC(=O)c3cc(NC(=O)CCNC(=O)c4cc(NC(=O)c5cc(NC(=O)c6nc(NC(=O)CCCNC(=O)c7cc(NC(=O)c8cc(NC(=O)c9nccn9C)cn8C)cn7C)cn6C)cn5C)cn4C)cn3C)cn2C)cn1C [ImPyPy-γ-ImPyPy-β-PyPyPy-G-Dp]
